Test results as given in patent EP0674651B1, “SUBSTITUTED 6-AZAANDROSTENONES” (priority 1992, dated 1994).
Like-named read-outs stand apart in the source and are kept apart here.

How the values were obtained:
[1] = target: T1, porcine granulosa cell 3β-hydroxy-Δ^5-steroid dehydrogenase / 3-keto-Δ^5-steroid isomerase (3βHSD) (Sus scrofa, UniProt Q9N119); conditions: cited from earlier work
T1 construct: host or cells: porcine granulosa cells
T1 sequence (Q9N119 1-373): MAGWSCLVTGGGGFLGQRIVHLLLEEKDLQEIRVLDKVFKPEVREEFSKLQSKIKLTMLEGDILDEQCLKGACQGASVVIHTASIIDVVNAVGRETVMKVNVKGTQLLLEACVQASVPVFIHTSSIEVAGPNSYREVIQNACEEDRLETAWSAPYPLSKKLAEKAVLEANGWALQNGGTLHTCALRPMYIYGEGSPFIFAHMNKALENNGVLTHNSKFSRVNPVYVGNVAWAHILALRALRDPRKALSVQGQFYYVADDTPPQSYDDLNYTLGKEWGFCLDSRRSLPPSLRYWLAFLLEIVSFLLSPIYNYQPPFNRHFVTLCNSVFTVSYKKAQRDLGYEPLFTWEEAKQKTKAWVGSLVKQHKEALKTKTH

[2] = target: T2, bovine adrenal 3β-hydroxy-Δ^5-steroid dehydrogenase / 3-keto-Δ^5-steroid isomerase (3βHSD) (Bos taurus, UniProt P14893); conditions: cited from earlier work
T2 construct: host or cells: bovine adrenal
T2 sequence (P14893 1-373): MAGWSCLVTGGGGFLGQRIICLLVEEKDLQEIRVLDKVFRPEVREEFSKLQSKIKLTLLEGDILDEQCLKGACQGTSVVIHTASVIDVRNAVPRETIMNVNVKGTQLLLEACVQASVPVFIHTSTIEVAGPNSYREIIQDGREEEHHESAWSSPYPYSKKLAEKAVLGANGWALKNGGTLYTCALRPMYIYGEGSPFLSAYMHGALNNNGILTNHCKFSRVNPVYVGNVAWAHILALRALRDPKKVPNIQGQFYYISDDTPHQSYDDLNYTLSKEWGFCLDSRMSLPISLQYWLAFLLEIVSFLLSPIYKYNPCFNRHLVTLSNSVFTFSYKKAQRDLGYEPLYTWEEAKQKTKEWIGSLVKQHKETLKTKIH

[3] = literature reports; cited from earlier work
[4] = target: Rat Prostatic 5α-reductase; assay: 5α-reductase in vitro inhibitory activity, rat prostatic; conditions: read-out: IC50 Rat Prostatic; microsomes derived from prostate tissue from the rat
Method: Microsomes were prepared by homogenization of the tissue or cells, followed by differential centrifugation of the homogenate. […] Corresponding incubations were carried out with no test compound as a control study.
The percentage of conversion of testosterone to DHT in the presence of test compounds compared to the corresponding conversion in the control study was estimated using high pressure liquid chromatography (HPLC) with radiochemical detection.

[5] = target: T3, human type 2 5α-reductase (Homo sapiens, UniProt P31213); assay: 5α-reductase in vitro inhibitory activity, human type 2
T3 sequence (P31213 1-254): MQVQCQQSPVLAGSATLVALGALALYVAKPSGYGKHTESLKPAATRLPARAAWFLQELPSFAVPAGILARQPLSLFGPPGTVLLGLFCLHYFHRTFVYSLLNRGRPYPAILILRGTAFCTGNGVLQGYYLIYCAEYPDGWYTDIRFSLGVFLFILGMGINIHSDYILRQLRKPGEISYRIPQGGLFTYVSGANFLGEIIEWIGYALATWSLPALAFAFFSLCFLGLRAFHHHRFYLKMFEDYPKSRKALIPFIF

[6] = target: T4, human type 1 5α-reductase (Homo sapiens, UniProt P18405); assay: 5α-reductase in vitro inhibitory activity, human type 1
T4 sequence (P18405 1-259): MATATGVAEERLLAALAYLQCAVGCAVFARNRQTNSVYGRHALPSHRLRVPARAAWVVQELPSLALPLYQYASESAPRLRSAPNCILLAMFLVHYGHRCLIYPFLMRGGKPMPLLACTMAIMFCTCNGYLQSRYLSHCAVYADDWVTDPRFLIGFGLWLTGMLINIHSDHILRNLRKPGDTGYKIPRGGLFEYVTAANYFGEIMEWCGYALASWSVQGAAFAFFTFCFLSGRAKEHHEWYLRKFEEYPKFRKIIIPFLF

Row | Molecule | inhibition of 3βHSD [1] | inhibition of 3βHSD [2] | hepatotoxicity [3] | IC50 [4] | IC50 [5] | IC50 [6] | IC50 ([5]; read-out: IC50 Human Type 2, microsomes, preincubated 20 minutes at pH 6.0, 8nM testosterone, 1 mM NADPH) | IC50 ([6]; read-out: IC50 Human Type 1, microsomes of recombinant baculovirus infected SF9 cells, preincubated 10 minutes at pH 7.0, 100nM testosterone, 1 mM NADPH)
1 | CCN(CC)C(=O)[C@H]1CC[C@H]2[C@@H]3CC[C@H]4N(C)C(=O)CC[C@]4(C)[C@H]3CC[C@]12C [Compound 4-MA] | potent inhibition | potent inhibition | hepatotoxicity | – | – | – | – | –
2 | C[C@]12CC[C@H]3[C@@H](CNC4=CC(=O)CC[C@@]43C)[C@@H]1CC[C@@H]2C(=O)NCC(c1ccccc1)c1ccccc1 [Compound 22, 17β-N-(2,2-Diphenyl)ethyl-carbamoyl-6-azaandrost-4-en-3-one] | – | – | – | < 10 nM | < 10 nM | 10 to 100 nM | – | –
3 | C[C@]12CC[C@H]3[C@@H](CNC4=CC(=O)CC[C@@]43C)[C@@H]1CC[C@@H]2C(=O)CC1CCCCC1 [Compound 2, 17β-(1-Oxo-2-cyclohexylethyl)-6-azaandrost-4-en-3-one] | – | – | – | < 10 nM | < 10 nM | < 10 nM | – | –
4 | C[C@]12CC[C@H]3[C@@H](CNC4=CC(=O)CC[C@@]43C)[C@@H]1CC[C@@H]2C(=O)NC1c2ccccc2-c2ccccc21 [Compound 1, 17β-N-9-Fluorenyl-carbamoyl-6-azaandrost-4-en-3-one] | – | – | – | 10 to 100 nM | < 10 nM | > 100 nM | – | –
5 | CC(C)CC(=O)OC[C@H]1CC[C@H]2[C@@H]3CNC4=CC(=O)CC[C@]4(C)[C@H]3CC[C@]12C [Compound 27, 17β-Hydroxymethyl-(3-methylbutyrate)-6-azaandrost-4-en-3-one] | – | – | – | 10 to 100 nM | < 10 nM | < 10 nM | – | –
6 | CC1(C)C2CCC(CNC(=O)[C@H]3CC[C@H]4[C@@H]5CNC6=CC(=O)CC[C@]6(C)[C@H]5CC[C@]34C)C1C2 (stereo partly drawn) [Compound 39, 17β-N-Myrantyl-carbamoyl-6-azaandrost-4-en-3-one] | – | – | – | 10 to 100 nM | < 10 nM | 10 to 100 nM | – | –
7 | C[C@]12CC[C@H]3[C@@H](CNC4=CC(=O)CC[C@@]43C)[C@@H]1CC[C@@H]2C(=O)Nc1cc(C(F)(F)F)ccc1C(F)(F)F [Compound 50, 17β-N-(2,5-Ditrifluoromethyl)phenyl-carbamoyl-6-azaandrost-4-en-3-one] | – | – | – | 10 to 100 nM | < 10 nM | < 10 nM | – | –
8 | C[C@]12CC[C@H]3[C@@H](CNC4=CC(=O)CC[C@@]43C)[C@@H]1CC[C@@H]2C(=O)Nc1cccc2c1Cc1ccccc1-2 [Compound 15, 17β-N-1-Fluorenyl-carbamoyl-6-azaandrost-4-en-3-one] | – | – | – | < 10 nM | < 10 nM | > 100 nM | – | –
9 | CC(C)(C)C1CCC(NC(=O)[C@H]2CC[C@H]3[C@@H]4CNC5=CC(=O)CC[C@]5(C)[C@H]4CC[C@]23C)CC1 (stereo partly drawn) [Compound 51, 17β-N-(4-t-Butyl)cyclohexyl-carbamoyl-6-azaandrost-4-en-3-one] | – | – | – | > 100 nM | 10 to 100 nM | > 100 nM | – | –
10 | Cc1cc(C(C)(C)C)cc(C)c1NC(=O)[C@H]1CC[C@H]2[C@@H]3CNC4=CC(=O)CC[C@]4(C)[C@H]3CC[C@]12C [Compound 48, 17β-N-(2,6-Dimethyl-4-t-butyl)phenyl-carbamoyl-6-azaandrost-4-en-3-one] | – | – | – | 10 to 100 nM | < 10 nM | < 10 nM | – | –
11 | C[C@]12CC[C@H]3[C@@H](CNC4=CC(=O)CC[C@@]43C)[C@@H]1CC[C@@H]2C(=O)Nc1ccccc1Br [Compound 52, 17β-N-(2-Bromo)phenyl-carbamoyl-6-azaandrost-4-en-3-one] | – | – | – | 10 to 100 nM | < 10 nM | 10 to 100 nM | – | –
12 | CC(C)(C)C(=O)OCC1CCC2C3CNC4=CC(=O)CCC4(C)C3CCC12C (stereo not drawn) [Compound 3, 17β-Hydroxymethyl-(trimethylacetate)-6-azaandrost-4-en-3-one] | – | – | – | < 10 nM | 10 to 100 nM | 10 to 100 nM | – | –
13 | CC12CCC(=O)C=C1NCC1C2CCC2(C)C(C(=O)Nc3ccc(N4CCOCC4)cc3)CCC12 (stereo not drawn) [Compound 5, 17β-N-Phenyl-(4-morpholino)-carbamoyl-6-azaandrost-4-en-3-one] | – | – | – | 10 to 100 nM | 10 to 100 nM | > 100 nM | – | –
14 | CC12CCC(=O)C=C1NCC1C2CCC2(C)C(C(=O)Nc3ccccc3C(F)(F)F)CCC12 (stereo not drawn) [Compound 9, 17β-N-(2-Trifluoromethyl)phenyl-carbamoyl-6-azaandrost-4-en-3-one] | – | – | – | < 10 nM | < 10 nM | 10 to 100 nM | – | –
15 | CCCCCCCCCCc1ccc(NC(=O)[C@H]2CC[C@H]3[C@@H]4CNC5=CC(=O)CC[C@]5(C)[C@H]4CC[C@]23C)cc1 [Compound 36, 17β-N-(4-Decyl)phenyl-carbamoyl-6-azaandrost-4-en-3-one] | – | – | – | < 10 nM | < 10 nM | > 100 nM | – | –
16 | C[C@]12CC[C@H]3[C@@H](CNC4=CC(=O)CC[C@@]43C)[C@@H]1CC[C@@H]2C(=O)NCc1ccc(F)cc1F [Compound 42, 17β-N-(2,4-Difluoro)benzyl-carbamoyl-6-azaandrost-4-en-3-one] | – | – | – | < 10 nM | < 10 nM | 10 to 100 nM | – | –
17 | C[C@]12CC[C@H]3[C@@H](CNC4=CC(=O)CC[C@@]43C)[C@@H]1CC[C@@H]2C(=O)NN(c1ccccc1)c1ccccc1 [Compound 25, 17β-N-(2,2-Diphenyl)-hydrazidyl-6-azaandrost-4-en-3-one] | – | – | – | < 10 nM | < 10 nM | 10 to 100 nM | – | –
18 | CC(C)(Cc1ccc(F)cc1)NC(=O)[C@H]1CC[C@H]2[C@@H]3CNC4=CC(=O)CC[C@]4(C)[C@H]3CC[C@]12C [Compound 32, 17β-N-(1,1-Dimethyl)-2-(4-fluorophenyl)ethyl-carbamoyl-6-azaandrost-4-en-3-one] | – | – | – | < 10 nM | < 10 nM | 10 to 100 nM | – | –
19 | Cc1cc(C)c(NC(=O)[C@H]2CC[C@H]3[C@@H]4CNC5=CC(=O)CC[C@]5(C)[C@H]4CC[C@]23C)c(C)c1 [Compound 40, 17β-N-(2,4,6-Trimethyl)phenyl-carbamoyl-6-azaandrost-4-en-3-one] | – | – | – | 10 to 100 nM | < 10 nM | 10 to 100 nM | – | –
20 | C[C@]12CC[C@H]3[C@@H](CNC4=CC(=O)CC[C@@]43C)[C@@H]1CC[C@@H]2COC(=O)C(c1ccccc1)c1ccccc1 [Compound 28, 17β-Hydroxymethyl-(2,2-diphenylacetate)-6-azaandrost-4-en-3-one] | – | – | – | < 10 nM | 10 to 100 nM | 10 to 100 nM | – | –
21 | 17β-N-(2-t-Butyl-5-(N-methyl)methylsulfonamide)phenyl-6-azaandrost-4-en-3-one [Compound 91] | – | – | – | 10 to 100 nM | – | – | < 10 nM | 10 to 100 nM
